Results taken from patent US11708348B2, “Protease inhibitors for treatment of coronavirus infections” (The Scripps Research Institute, priority 2021, dated 2023).
Where two headings read alike, the source gives them in different places.

Tested on: SARS-CoV-2 strain USA-WA1/2020
Experiment: microbe, parasite or virus in culture
Type: cell-based
Settings: Severe acute respiratory syndrome coronavirus 2, HeLa-ACE2, 24 h, HeLa-ACE2 cells, SARS-CoV-2 infection, 24 h, read-out: EC50, uM (Hela)

Structure (SMILES)	EC50 (class symbols) [µM]	EC50 (bound printed in cell) [µM]
COc1ccccc1-c1cnc(C(=O)N[C@@H](CC(C)C)C(=O)N[C@@H](C[C@@H]2CCNC2=O)C(=O)COC(F)(F)F)[nH]1 [Compound 210, 5-(2-methoxyphenyl)-N-((S)-4-methyl-1-oxo-1-(((S)-3-oxo-1-((S)-2-oxopyrrolidin-3-yl)-4-(trifluoromethoxy)butan-2-yl)amino)pentan-2-yl)-1H-imidazole-2-carboxamide]	< 0.05	–
CC(C)C[C@H](NC(=O)C(=O)NC(C)(C)C(F)(F)F)C(=O)N[C@@H](C[C@@H]1CCNC1=O)C(=O)COC(F)(F)F [Compound 211, N1-((S)-4-methyl-1-oxo-1-(((S)-3-oxo-1-((S)-2-oxopyrrolidin-3-yl)-4-(trifluoromethoxy)butan-2-yl)amino)pentan-2-yl)-N2-(1,1,1-trifluoro-2-methylpropan-2-yl)oxalamide]	< 0.05	–
CC(C)(NC(=O)C(=O)N[C@@H](CC1CCCCC1)C(=O)N[C@@H](C[C@@H]1CCNC1=O)C(=O)COC(F)(F)F)C(F)(F)F [Compound 212, N1-((S)-3-cyclohexyl-1-oxo-1-(((S)-3-oxo-1-((S)-2-oxopyrrolidin-3-yl)-4-(trifluoromethoxy)butan-2-yl)amino)propan-2-yl)-N2-(1,1,1-trifluoro-2-methylpropan-2-yl)oxalamide]	< 0.05	–
CC(C)C[C@H](NC(=O)C1CCC(=O)O1)C(=O)N[C@@H](C[C@@H]1CCNC1=O)C(=O)COC(F)(F)F (stereo partly drawn) [Compound 213, N-((S)-4-methyl-1-oxo-1-(((S)-3-oxo-1-((S)-2-oxopyrrolidin-3-yl)-4-(trifluoromethoxy)butan-2-yl)amino)pentan-2-yl)-5-oxotetrahydrofuran-2-carboxamide]	0.5 to 1	–
CC(C)C[C@H](NC(=O)C1(C)CCCO1)C(=O)N[C@@H](C[C@@H]1CCNC1=O)C(=O)COC(F)(F)F (stereo partly drawn) [Compound 214, 2-methyl-N-((S)-4-methyl-1-oxo-1-(((S)-3-oxo-1-((S)-2-oxopyrrolidin-3-yl)-4-(trifluoromethoxy)butan-2-yl)amino)pentan-2-yl)tetrahydrofuran-2-carboxamide]	0.05 to 0.2	–
CC1(NC(=O)C(=O)N[C@@H](Cc2cccc(F)c2)C(=O)N[C@@H](C[C@@H]2CCNC2=O)C(=O)COC(F)(F)F)CC1 [Compound 215, N1-((S)-3-(3-fluorophenyl)-1-oxo-1-(((S)-3-oxo-1-((S)-2-oxopyrrolidin-3-yl)-4-(trifluoromethoxy)butan-2-yl)amino)propan-2-yl)-N2-(1-methylcyclopropyl)-oxalamide]	< 0.05	–
CC(C)C[C@H](NC(=O)C(=O)NC1(c2ccccc2F)CC1)C(=O)N[C@@H](C[C@@H]1CCNC1=O)C(=O)COC(F)(F)F [Compound 216, Nl-(1-(2-fluorophenyl)-cyclopropyl)-N2-((S)-4-methyl-1-oxo-1-(((S)-3-oxo-1-((S)-2-oxopyrrolidin-3-yl)-4-(trifluoromethoxy)butan-2-yl)amino)pentan-2-yl)oxalamide]	< 0.05	–
CC(C)C[C@H](NC(=O)C(=O)NC1(C)CC1)C(=O)N[C@@H](C[C@@H]1CCNC1=O)C(=O)COC(F)(F)F [Compound 217, N1-((S)-4-methyl-1-oxo-1-(((S)-3-oxo-1-((S)-2-oxopyrrolidin-3-yl)-4-(trifluoromethoxy)butan-2-yl)amino)pentan-2-yl)-N2-(1-methylcyclopropyl)-oxalamide]	< 0.05	–
O=C(Nc1ccccc1F)C(=O)N[C@@H](CC1CCNC1=O)C(=O)N[C@@H](C[C@@H]1CCNC1=O)C(=O)COC(F)(F)F (stereo partly drawn) [Compound 218, N1-(2-fluorophenyl)-N2-((2S)-1-oxo-1-(((S)-3-oxo-1-((S)-2-oxopyrrolidin-3-yl)-4-(trifluoromethoxy)butan-2-yl)amino)-3-(2-oxopyrrolidin-3-yl)propan-2-yl)oxalamide]	0.5 to 1	–
CC(C)C[C@H](NC(=O)C(=O)Nc1ccccc1F)C(=O)N[C@@H](C[C@@H]1CCCNC1=O)C(=O)COC(F)(F)F [Compound 219, N^1-(2-fluorophenyl)-N^2—((S)-4-methyl-1-oxo-1-(((S)-3-oxo-1-((S)-2-oxopiperidin-3-yl)-4-(trifluoromethoxy)butan-2-yl)amino)pentan-2-yl)oxalamide]	< 0.05	–
CC1(NC(=O)C(=O)N[C@@H](CC2CC2)C(=O)N[C@@H](C[C@@H]2CCNC2=O)C(=O)COC(F)(F)F)CC(F)(F)C1 [Compound 220, N1-((S)-3-cyclopropyl-1-oxo-1-(((S)-3-oxo-1-((S)-2-oxopyrrolidin-3-yl)-4-(trifluoromethoxy)butan-2-yl)amino)propan-2-yl)-N2-(3,3-difluoro-1-methylcyclobutyl)-oxalamide]	< 0.05	–
CC(C)C[C@H](NC(=O)C(=O)NC1CCC1)C(=O)N[C@@H](C[C@@H]1CCNC1=O)C(=O)COC(F)(F)F [Compound 221, N1-cyclobutyl-N2-((S)-4-methyl-1-oxo-1-(((S)-3-oxo-1-((S)-2-oxopyrrolidin-3-yl)-4-(trifluoromethoxy)butan-2-yl)amino)pentan-2-yl)oxalamide]	< 0.05	–
CC1(NC(=O)C(=O)N[C@@H](CC2CC2)C(=O)N[C@@H](C[C@@H]2CCNC2=O)C(=O)COC(F)(F)F)CCOCC1 [Compound 222, N1-((S)-3-cyclopropyl-1-oxo-1-(((S)-3-oxo-1-((S)-2-oxopyrrolidin-3-yl)-4-(trifluoromethoxy)butan-2-yl)amino)propan-2-yl)-N2-(4-methyltetrahydro-2H-pyran-4-yl)oxalamide]	0.05 to 0.2	–
O=C(N[C@@H](CC1CC1)C(=O)N[C@@H](C[C@@H]1CCNC1=O)C(=O)COC(F)(F)F)c1ncc(-c2ccccc2)[nH]1 [Compound 223, N-((S)-3-cyclopropyl-1-oxo-1-(((S)-3-oxo-1-((S)-2-oxopyrrolidin-3-yl)-4-(trifluoromethoxy)butan-2-yl)amino)propan-2-yl)-5-phenyl-1H-imidazole-2-carboxamide]	< 0.05	–
CC(C)C[C@H](NC(=O)c1ncc(-c2ccccc2)[nH]1)C(=O)N[C@@H](C[C@@H]1CCNC1=O)C(=O)COC(F)(F)F [Compound 224, N-((S)-4-methyl-1-oxo-1-(((S)-3-oxo-1-((S)-2-oxopyrrolidin-3-yl)-4-(trifluoromethoxy)butan-2-yl)amino)pentan-2-yl)-5-phenyl-1H-imidazole-2-carboxamide]	< 0.05	–
CC(C)(C)C[C@H](NC(=O)C(=O)NC12CC(F)(C1)C2)C(=O)N[C@@H](C[C@@H]1CCNC1=O)C(=O)COC(F)(F)F [Compound 226, N1-((S)-4,4-dimethyl-1-oxo-1-(((S)-3-oxo-1-((S)-2-oxopyrrolidin-3-yl)-4-(trifluoromethoxy)butan-2-yl)amino)pentan-2-yl)-N2-(3-fluorobicyclo[1.1.1]-pentan-1-yl)oxalamide]	< 0.05	–
O=C(Nc1ccccc1F)C(=O)N[C@@H](CC1CCCC1(F)F)C(=O)N[C@@H](C[C@@H]1CCNC1=O)C(=O)COC(F)(F)F (stereo partly drawn) [Compound 227, N1-((2S)-3-(2,2-difluoro-cyclopentyl)-1-oxo-1-(((S)-3-oxo-1-((S)-2-oxopyrrolidin-3-yl)-4-(trifluoromethoxy)butan-2-yl)amino)propan-2-yl)-N2-(2-fluorophenyl)-oxalamide]	< 0.05	–
COc1cccc2[nH]c(C(=O)N[C@@H](CC(C)C)C(=O)N[C@@H](C[C@@H]3CCCNC3=O)C(=O)COC(F)(F)F)cc12 [Compound 229, 4-methoxy-N-((S)-4-methyl-1-oxo-1-(((S)-3-oxo-1-((S)-2-oxopiperidin-3-yl)-4-(trifluoromethoxy)butan-2-yl)amino)pentan-2-yl)-1H-indole-2-carboxamide]	< 0.05	–
CC(C)C[C@H](NC(=O)C(=O)NC1(CO)CC1)C(=O)N[C@@H](C[C@@H]1CCNC1=O)C(=O)COC(F)(F)F [Compound 231, Nl-(l-(hydroxymethyl)-cyclopropyl)-N2-((S)-4-methyl-1-oxo-1-(((S)-3-oxo-1-((S)-2-oxopyrrolidin-3-yl)-4-(trifluoromethoxy)butan-2-yl)amino)pentan-2-yl)oxalamide]	0.5 to 1	–
O=C(NC1CCNCC1)C(=O)N[C@@H](CC1CC1)C(=O)N[C@@H](C[C@@H]1CCNC1=O)C(=O)COC(F)(F)F [Compound 232, N1-((S)-3-cyclopropyl-1-oxo-1-(((S)-3-oxo-1-((S)-2-oxopyrrolidin-3-yl)-4-(trifluoromethoxy)butan-2-yl)amino)propan-2-yl)-N2-(piperidin-4-yl)oxalamide]	–	> 1
COc1cccc2[nH]c(C(=O)N[C@@H](CCCc3ccccc3)C(=O)N[C@@H](C[C@@H]3CCNC3=O)C(=O)COC(F)(F)F)cc12 [Compound 233, 4-methoxy-N-((S)-1-oxo-1-(((S)-3-oxo-1-((S)-2-oxopyrrolidin-3-yl)-4-(trifluoromethoxy)butan-2-yl)amino)-5-phenylpentan-2-yl)-1H-indole-2-carboxamide]	0.05 to 0.2	–
O=C(NC1CS(=O)(=O)C1)C(=O)N[C@@H](CC1CC1)C(=O)N[C@@H](C[C@@H]1CCNC1=O)C(=O)COC(F)(F)F [Compound 234, N1-((S)-3-cyclopropyl-1-oxo-1-(((S)-3-oxo-1-((S)-2-oxopyrrolidin-3-yl)-4-(trifluoromethoxy)butan-2-yl)amino)propan-2-yl)-N2-(l,1-dioxidothietan-3-yl)oxalamide]	–	> 1
COC[C@@H](Nc1ccccc1F)C(=O)N[C@@H](CC(C)C)C(=O)N[C@@H](C[C@@H]1CCNC1=O)C(=O)COC(F)(F)F [Compound 235, (S)-2-((R)-2-((2-fluorophenyl)amino)-3-methoxypropanamido)-4-methyl-N-((S)-3-oxo-1-((S)-2-oxopyrrolidin-3-yl)-4-(trifluoromethoxy)butan-2-yl)pentanamide]	< 0.05	–
COC[C@H](Nc1ccccc1F)C(=O)N[C@@H](CC(C)C)C(=O)N[C@@H](C[C@@H]1CCNC1=O)C(=O)COC(F)(F)F [Compound 236, (S)-2-((S)-2-((2-fluorophenyl)amino)-3-methoxypropanamido)-4-methyl-N-((S)-3-oxo-1-((S)-2-oxopyrrolidin-3-yl)-4-(trifluoromethoxy)butan-2-yl)pentanamide]	< 0.05	–
